Tests used:
h-cGAS = h-cGAS (Homo sapiens, UniProt Q8N884); test: Cell-free human cGAS enzyme inhibition assay (ATP depletion, Kinase-Glo Max); format: biochemical; details: 3 h; for inhibition at 10 µM: read-out: h-cGAS, conc. 10 μM; for inhibition at 1 µM: read-out: h-cGAS, conc. 1 μM
Protocol: (§1) Cell-free mouse and human cGAS enzyme inhibition assay (Table 2). Activity of all compounds (in Table 1) against m-cGAS (30 nM) and or h-cGAS, (100 nM) was determined by measuring the conversion of ATP and GTP (100 μM each) to cGAMP in the presence of dsDNA (5 ug/mL) in a reaction buffer composed of Tris-HCl (20 mM, pH7.4), NaCl (150 mM), MnCl2 (0.2 mM, h-cGAS) or MgCl2 (5 mM, m-cGAS) and Tween-20 (0.01%), and the remaining ATP concentration using Kinase-Glo®Max Luminescent Kinase Assay (Promega, Madison, WI), as described (Lama, et. al., 2019). Briefly, 10 μl of a master mix of 0.4 mM ATP, 0.4 mM GTP, 0.02 mg/mL dsDNA in the reaction buffer supplemented with 2 mM DTT was added to reaction wells containing TDI-6570 or TDI-8246 (2× of the desired concentration) in the same buffer ([…]) using a Thermo 8-channel Multidrop Combi dispenser. Next, 10 μl of a 4×m-cGAS (0.120 μM) or h-cGAS (0.4 μM) solution in the reaction buffer supplemented with 2 mM DTT was added to appropriate wells. Similar sets of reactions without cGAS or the inhibitor was set by adding the buffer alone. The reactions with the plates sealed were incubated at 37° C. (1 hour for m-cGAS and 3 hours for h-cGAS) and stopped by addition of 40 μl of the Kinase-Glo®Max. The luminescence was recorded in relative light units (RLUs) using a Biotek Synergy H1 Hybrid plate reader (BioTek, Winooski, VT). […] All reactions were run in triplicates and calculated using GraphPad Prism 9. The values represent mean IC50±S.D.

THP1 cells = test: THP1-Dual cells, cell viability (CellTiter-Glo); format: cell-based
Protocol: (§2) Evaluation of active cGAS inhibitors in THP1 cells (Table 3). Cellular activity of all compounds (in Table 3) was determined using THP1-Dual™ cells as described (Lama et. al., 2019). THP1-Dual™ cells (Invivogen) (50000 cells in 100 μl media) were seeded into each well of a 96-well plate and treated with compounds at various dilution for 4 hours. Subsequently, cells were transfected with DNA (2 ug/ml) and lipofectamine and incubate the cells were incubated overnight. Ifnb expression was measured in cell supernatant using Quantiluc, nfkb expression was determined using Quantiblue, and cell viability using Promega® CellTiter-Glo®.

IFNB = test: THP1-Dual cells transfected with DNA, Ifnb expression (Quantiluc); format: cell-based; details: Homo sapiens; for inhibition at 10 µM: THP-1, 10 μM; for inhibition at 30 µM: THP-1, 30 μM
Protocol: as §2

m-cGAS = m-cGAS (Mus musculus, UniProt Q8C6L5); test: Cell-free mouse cGAS enzyme inhibition assay (ATP depletion, Kinase-Glo Max); format: biochemical; details: 1 h; for inhibition at 10 µM: read-out: m-cGAS, conc. 10 μM; for inhibition at 1 µM: read-out: m-cGAS, conc. 1 μM
Protocol: as §1

m-cGAS, sequence (Q8C6L5 whole entry): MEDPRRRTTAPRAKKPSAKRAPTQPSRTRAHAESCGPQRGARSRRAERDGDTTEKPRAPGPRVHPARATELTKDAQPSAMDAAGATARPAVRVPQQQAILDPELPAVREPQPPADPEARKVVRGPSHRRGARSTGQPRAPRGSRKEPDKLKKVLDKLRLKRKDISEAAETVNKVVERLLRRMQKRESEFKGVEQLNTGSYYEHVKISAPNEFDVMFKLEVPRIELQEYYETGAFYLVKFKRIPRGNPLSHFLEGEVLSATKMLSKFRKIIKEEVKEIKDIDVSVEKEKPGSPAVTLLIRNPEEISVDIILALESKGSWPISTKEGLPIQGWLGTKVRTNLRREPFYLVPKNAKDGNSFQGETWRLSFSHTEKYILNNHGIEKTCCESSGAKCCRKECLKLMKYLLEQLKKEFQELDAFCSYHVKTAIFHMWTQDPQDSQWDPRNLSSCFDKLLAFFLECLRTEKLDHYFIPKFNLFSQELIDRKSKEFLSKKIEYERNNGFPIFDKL
h-cGAS, sequence (Q8N884 whole entry): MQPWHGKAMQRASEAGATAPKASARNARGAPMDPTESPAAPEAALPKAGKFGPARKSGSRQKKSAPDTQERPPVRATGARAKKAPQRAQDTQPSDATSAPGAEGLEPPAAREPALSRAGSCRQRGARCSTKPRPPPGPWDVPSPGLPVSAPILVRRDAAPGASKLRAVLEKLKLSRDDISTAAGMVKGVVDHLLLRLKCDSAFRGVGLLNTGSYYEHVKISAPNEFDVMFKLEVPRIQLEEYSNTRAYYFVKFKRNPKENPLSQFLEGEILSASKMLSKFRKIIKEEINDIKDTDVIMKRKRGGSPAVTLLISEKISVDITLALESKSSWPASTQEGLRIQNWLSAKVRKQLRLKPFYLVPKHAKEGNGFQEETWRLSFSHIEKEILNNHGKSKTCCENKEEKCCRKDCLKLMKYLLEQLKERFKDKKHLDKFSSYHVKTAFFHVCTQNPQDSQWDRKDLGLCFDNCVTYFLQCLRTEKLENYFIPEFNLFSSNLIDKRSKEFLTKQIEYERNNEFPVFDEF

inhibition at 10 µM (h-cGAS)	inhibition at 1 µM (h-cGAS)	inhibition at 10 µM (m-cGAS)	inhibition at 1 µM (m-cGAS)	Compound	Cell viability 10 μM (THP1 cells)	Cell viability 30 μM (THP1 cells)	inhibition at 10 µM (IFNB)	inhibition at 30 µM (IFNB)
25 to 49%	–	–	–	O=C(CO)N1CCc2c(sc3c(Cl)c(Cl)cc(-c4nccs4)c23)C1 [Compound 67]	–	–	–	–
50 to 74%	25 to 49%	–	–	O=C(CO)N1CCc2oc3c(Cl)c(Cl)cc(-c4cc[nH]n4)c3c2C1 [Compound 28]	+++ (+, ++, and +++ mean the compound respectively shows 25-49%; 50-74%; or 75-100% viability to cells)	+++ (+, ++, and +++ mean the compound respectively shows 25-49%; 50-74%; or 75-100% viability to cells)	50 to 74%	50 to 74%
25 to 49%	0 to 24%	–	–	O=C(CO)N1CCc2c(sc3c(Cl)c(Cl)cc(-c4ccco4)c23)C1 [Compound 64]	–	–	–	–
50 to 74%	25 to 49%	–	–	CC(C)(N)C(=O)N1CCc2oc3c(Cl)c(Cl)cc(-c4cc[nH]n4)c3c2C1 [Compound 34]	+++ (+, ++, and +++ mean the compound respectively shows 25-49%; 50-74%; or 75-100% viability to cells)	− (Cell viability <24%, in THP1 cells is expressed as “−”)	75 to 100%	75 to 100%
0 to 24%	–	0 to 24%	–	CC(C)(C)OC(=O)N1CCCC1C(=O)N1CCc2[nH]c3c(Cl)c(Cl)cc(-c4ccc(N)nc4)c3c2C1 (stereo not drawn) [Compound 13]	–	–	–	–
50 to 74%	0 to 24%	50 to 74%	0 to 24%	O=C(CO)N1CCc2sc3c(Cl)c(Cl)cc(-c4cncnc4)c3c2C1 [Compound 47]	–	–	–	–
50 to 74%	0 to 24%	–	–	CC(C)(N)C(=O)N1CCc2c(sc3c(Cl)c(Cl)cc(-c4cn[nH]c4)c23)C1 [Compound 85]	+ (+, ++, and +++ mean the compound respectively shows 25-49%; 50-74%; or 75-100% viability to cells)	− (Cell viability <24%, in THP1 cells is expressed as “−”)	75 to 100%	75 to 100%
50 to 74%	–	0 to 24%	–	CC(C)(N)C(=O)N1CCc2sc3c(Cl)c(Cl)cc(-c4ccc(N)nc4)c3c2C1 [Compound 56]	+ (+, ++, and +++ mean the compound respectively shows 25-49%; 50-74%; or 75-100% viability to cells)	− (Cell viability <24%, in THP1 cells is expressed as “−”)	75 to 100%	75 to 100%
0 to 24%	–	25 to 49%	–	Nc1ccc(-c2cc(Cl)c(Cl)c3sc4c(c23)CN(C(=O)CO)CC4)cn1 [Compound 49]	–	–	–	–
0 to 24%	–	0 to 24%	–	Cn1c2c(c3c(-c4ccc(N)nc4)cc(Cl)c(Cl)c31)CN(C(=O)C1CCCN1C(=O)OC(C)(C)C)CC2 (stereo not drawn) [Compound 14]	–	–	–	–
75 to 100%	50 to 74%	–	–	O=C(CO)N1CCc2oc3c(Cl)c(Cl)cc(-c4nccs4)c3c2C1 [Compound 31]	+++ (+, ++, and +++ mean the compound respectively shows 25-49%; 50-74%; or 75-100% viability to cells)	+++ (+, ++, and +++ mean the compound respectively shows 25-49%; 50-74%; or 75-100% viability to cells)	50 to 74%	50 to 74%
0 to 24%	–	0 to 24%	–	Cn1c2c(c3c(-c4ccc(O)nc4)cc(Cl)c(F)c31)CN(C(=O)CO)CC2 [Compound 2]	–	–	–	–
0 to 24%	–	–	–	O=C(CO)N1CCc2c(sc3c(Cl)c(Cl)cc(-c4ccncc4)c23)C1 [Compound 69]	–	–	–	–
50 to 74%	0 to 24%	75 to 100%	–	O=C(CO)N1CCc2c(sc3c(Cl)c(Cl)ccc23)C1 [Compound 58]	–	–	–	–
0 to 24%	–	–	–	O=C(CO)N1CCc2c(sc3c(Cl)c(Cl)cc(-c4cccnc4)c23)C1 [Compound 68]	–	–	–	–
0 to 24%	–	0 to 24%	–	NCC(=O)N1CCc2nc3c(Cl)c(Cl)cc(-c4cncnc4)n3c2C1 [Compound 100]	–	–	–	–
0 to 24%	–	0 to 24%	–	Cn1c2c(c3c(-c4ccn[nH]4)cc(Cl)c(Cl)c31)CN(C(=O)C1CCCN1)CC2 (stereo not drawn) [Compound 18]	–	–	–	–

inhibition at 10 µM (h-cGAS)	inhibition at 1 µM (h-cGAS)	inhibition at 10 µM (m-cGAS)	inhibition at 1 µM (m-cGAS)	Compound	Cell viability 10 μM (THP1 cells)	Cell viability 30 μM (THP1 cells)	inhibition at 10 µM (IFNB)	inhibition at 30 µM (IFNB)
50 to 74%	0 to 24%	–	–	O=C(CO)N1CCc2oc3c(Cl)c(Cl)cc(-c4ccco4)c3c2C1 [Compound 30]	+++ (+, ++, and +++ mean the compound respectively shows 25-49%; 50-74%; or 75-100% viability to cells)	+++ (+, ++, and +++ mean the compound respectively shows 25-49%; 50-74%; or 75-100% viability to cells)	< 24%	25 to 49%
25 to 49%	–	50 to 74%	0 to 24%	Cn1ccc(-c2cc(Cl)c(Cl)c3sc4c(c23)CCN(C(=O)CO)C4)n1 [Compound 60]	–	–	–	–
25 to 49%	–	75 to 100%	0 to 24%	O=C(CO)N1CCc2c(sc3c(Cl)c(Cl)cc(-c4cncnc4)c23)C1 [Compound 65]	–	–	–	–
75 to 100%	0 to 24%	–	–	NCC(=O)N1CCc2c(oc3c(Cl)c(Cl)cc(-c4cncnc4)c23)C1 [Compound 39]	+++ (+, ++, and +++ mean the compound respectively shows 25-49%; 50-74%; or 75-100% viability to cells)	+++ (+, ++, and +++ mean the compound respectively shows 25-49%; 50-74%; or 75-100% viability to cells)	25 to 49%	75 to 100%
0 to 24%	–	0 to 24%	–	O=C(CO)N1CCc2nc3c(Cl)c(Cl)cc(-c4cncnc4)n3c2C1 [Compound 98]	–	–	–	–
75 to 100%	50 to 74%	–	–	Cn1cc(-c2cc(Cl)c(Cl)c3oc4c(c23)CCN(C(=O)CN)C4)cn1 [Compound 40]	+++ (+, ++, and +++ mean the compound respectively shows 25-49%; 50-74%; or 75-100% viability to cells)	− (Cell viability <24%, in THP1 cells is expressed as “−”)	75 to 100%	75 to 100%
75 to 100%	25 to 49%	–	–	O=C(CO)N1CCc2oc3c(Cl)c(Cl)cc(-c4cn[nH]c4)c3c2C1 [Compound 29]	+++ (+, ++, and +++ mean the compound respectively shows 25-49%; 50-74%; or 75-100% viability to cells)	+++ (+, ++, and +++ mean the compound respectively shows 25-49%; 50-74%; or 75-100% viability to cells)	50 to 74%	75 to 100%
75 to 100%	50 to 74%	–	–	Cn1ccc(-c2cc(Cl)c(Cl)c3oc4c(c23)CCN(C(=O)CN)C4)n1 [Compound 41]	+++ (+, ++, and +++ mean the compound respectively shows 25-49%; 50-74%; or 75-100% viability to cells)	− (Cell viability <24%, in THP1 cells is expressed as “−”)	50 to 74%	75 to 100%
25 to 49%	–	–	–	O=C(CO)N1CCc2c(sc3c(Cl)c(Cl)cc(-c4cc[nH]n4)c23)C1 [Compound 61]	–	–	–	–
0 to 24%	–	0 to 24%	–	Nc1ccc(-c2cc(Cl)c(Cl)c3[nH]c4c(c23)CN(C(=O)C2(N)CC2)CC4)cn1 [Compound 19]	–	–	–	–
0 to 24%	–	0 to 24%	–	Cn1c2c(c3c(-c4ccn[nH]4)cc(Cl)c(Cl)c31)CN(C(=O)C1CCCN1C(=O)OC(C)(C)C)CC2 (stereo not drawn) [Compound 15]	–	–	–	–
0 to 24%	–	–	–	CNc1ccc(-c2cc(Cl)c(Cl)c3sc4c(c23)CCN(C(=O)CO)C4)cn1 [Compound 66]	–	–	–	–
0 to 24%	–	–	–	O=C(CO)N1CCc2c(sc3c(Cl)c(Cl)cc(-c4cncs4)c23)C1 [Compound 70]	–	–	–	–
0 to 24%	–	0 to 24%	–	CC(C)(N)C(=O)N1CCc2sc3c(Cl)c(Cl)cc(-c4cc[nH]n4)c3c2C1 [Compound 55]	–	–	–	–
0 to 24%	–	0 to 24%	–	O=C(CO)N1CCc2sc3c(Cl)c(Cl)cc(-c4cc[nH]n4)c3c2C1 [Compound 50]	–	–	–	–
0 to 24%	–	0 to 24%	–	Cn1cc(-c2cc(Cl)c(Cl)c3nc4c(n23)CN(C(=O)CN)CC4)cn1 [Compound 101]	–	–	–	–

Source: patent US20250163052A1, “cGAS INHIBITORS AND USES THEREOF” (Cornell University, priority 2022, published 2025)
